Reference: patent US20260007688A1, “SYNTHETIC ANALOGS OF CANNABINOL (CBN) FOR THE TREATMENT OF AGERELATED NEUROLOGICAL DISORDERS” (priority 2023, published 2026)

Columns and labels:
[1] = system: HT22 cells; assay: Lipid peroxidation measurement (C11-BODIPY); type: cell-based, mouse; settings: compound + RSL3, 16 hours, p<0.0001
Experimental: The assay procedures were adapted from the procedures disclosed by Soriano-Castell et al., “Profiling the chemical nature of anti-oxytotic/ferroptotic compounds with phenotypic screening” Free Radic. Biol. Med. 177 (2021) 313-325 and Liang et al. “Cannabinol inhibits oxytosis/ferroptosis by directly targeting mitochondria independently of cannabinoid receptors” Free Radic. Biol. Med. 180 (2022) 33-51. Briefly, HT22 cells were seeded onto 96-well black walled plates at a density of 3,000 cells/well in DMEM supplemented with 10% FBS and 1% antibiotics. After the desired treatments for 16 hours, cells were labeled with 2.5 μM C11-BODIPY 581/591 (oxidized form Ex/Em=488/520 nm) at 37° C. for 2 hours. Experiments were performed according to the manufacturer's instructions. Fluorescence was measured on a SpectraMax M5 microplate reader. Data were normalized for total protein/well. Each condition was analyzed in eight wells per independent experiment (n=8). Results were verified by live-cell imaging under a fluorescence microscope.

[2] = system: HT22 cells; assay: Ferroptosis assay, erastin-induced cell death, MTT viability; type: cell-based; settings: Mus musculus, HT-22, 500 nM erastin, 16 hours
Experimental: (§1) HT22 mouse hippocampal nerve cells were cultured in high-glucose Dulbecco's modified Eagle's medium (DMEM) (Invitrogen, Cat #11995065, Carlsbad, CA) supplemented with 10% fetal bovine serum (FBS) (Invitrogen, Carlsbad, CA) and 1% antibiotics including penicillin and streptomycin (Invitrogen Cat #10378016, Carlsbad, CA). Cell cultures were incubated at 37° C. in a fully humidified atmosphere containing 10% CO2.
(§2) The assay procedure described in Fischer et al. was used. Briefly, HT22 cells were seeded at 3,000 cells/well in 96-well tissue culture plates in DMEM plus 10% FBS and 1% antibiotics. After 24 hours of plating, the cells were pretreated with different concentrations of test compounds or a vehicle control for 1 hour followed by coincubation with 50-100 nM RSL3 or 500 nM erastin to induce the cell death cascade. After 16 hours of treatment, cell viability was measured by the MTT assay. Optical absorbance was measured at 570 nm on a SpectraMax M5 microplate reader. Samples were analyzed in eight to sixteen wells per independent experiment (n=8-16). Results are presented as the percentage of the controls with vehicle alone.

[3] = system: HT22 cells; assay: Seahorse XF real-time ATP rate assay; type: cell-based, mouse; settings: 5 μM, 16 hours
Experimental: The assay procedure described in Liang et al., “Cannabinol inhibits oxytosis/ferroptosis by directly targeting mitochondria independently of cannabinoid receptors” Free Radic. Biol. Med. 180 (2022) 33-51 was used. Briefly, ATP production rates were assayed with a XF Real-Time ATP Rate Assay Kit using a Seahorse Xfe96 Extracellular Flux Analyzer (Seahorse Bioscience, North Billerica, MA). Complete Seahorse XF DMEM assay medium was supplemented with 10 mM glucose, 1 mM pyruvate and 2 mM L-glutamine, at pH 7.4. Mitochondrial ETC inhibitors were used at the following concentrations: 1.5 μM oligomycin and 0.5 μM of a 1:1 mixture of rotenone and antimycin A. Analyses were conducted using Wave software and XF Report Generators (Agilent Technologies). The sensor cartridge for the Xfe analyzer was hydrated overnight at 37° C. before the experiment. Data were normalized for total protein/well. Each condition was analyzed in 20-40 wells per independent experiment (n=20-40). FIGS. 12 and 13 provide the results.
For HT22 cells, 2,000 cells/well were seeded onto the Seahorse Xfe96 plates under normal culture condition as described above. The next day, cells were treated with test compounds at the desired concentrations and incubated for 16 hours. Immediately before the assay, the culture medium in the plates was replaced with complete Seahorse XF DMEM assay medium. […]

[4] = system: MC65 cells; assay: Intracellular amyloid toxicity assay; type: cell-based; settings: Homo sapiens, 72 h, APP-C99 induced, day 3, MTT, read-out: Aβ toxicity EC50
Excerpt: Accumulation of intracellular amyloid beta peptide (Aβ) is considered by many as being a primary toxic event in AD. The human nerve cell line MC65 conditionally expresses the C99 fragment of the amyloid precursor protein (APP) leading to the accumulation of intracellular AB. The MC65 cells are routinely grown in the presence of tetracycline and, following its removal, the expression of C99 is induced and the cells die within three days because of the accumulation of intracellular, toxic protein aggregates.
For the intracellular amyloid toxicity assay the procedure described in Huang et al., “Intracellular amyloid toxicity induces oxytosis/ferroptosis regulated cell death” Cell Death Dis. 11 (10) (2020) 828 was used. Briefly, MC65 cells were regularly grown in high glucose DMEM supplemented with 10% FCS and 2 μg/ml tetracycline. For the assay, cells were dissociated and plated at 1×10^5 cells per well in 24 well tissue culture plates. After overnight cultivation in growth medium, the cells were washed three times with phosphate buffered saline containing calcium and magnesium and then switched to Opti-minimal essential media (Opti-MEM, Invitrogen) in the presence (no induction) or absence (APP-C99 induced) of 2 μg/ml tetracycline in the presence or absence different concentrations of the indicated compounds. At day 3, the control cells in the absence of tetracycline were dead, and cell viability was determined by the MTT assay. Optical absorbance was measured at 570 nm on a SpectraMax M5 microplate reader. Samples were analyzed in three wells per independent experiment (n=3). Results are presented as EC50.

[5] = system: HT22 cells; assay: Oxytosis assay, glutamate-induced cell death, MTT viability; type: cell-based; settings: Mus musculus, HT-22, 5 mM glutamate, 16 hours
Experimental: as §1
The assay procedure described in Fischer et al., “Old age-associated phenotypic screening for Alzheimer's disease drug candidates identifies sterubin as a potent neuroprotective compound from Yerba santa” Redox Biol. 21 (2019) 101089 was used. Briefly, HT22 cells were seeded at 3,000 cells/well in 96-well tissue culture plates in DMEM plus 10% FBS and 1% antibiotics. After 24 hours of plating, the cells were pretreated with different concentrations of the test compounds or a vehicle control for 1 hour followed by coincubation with 5 mM glutamate to initiate the cell death cascade. After 16 hours of treatment, cell viability was measured by the 3-(4,5-dimethylthiazol-2-yl)-2,5-diphenyltetrazolium bromide (MTT) assay. Optical absorbance was measured at 570 nm on a SpectraMax M5 microplate reader. Samples were analyzed in eight to sixteen wells per independent experiment (n=8-16). Results are presented as the percentage of the controls with vehicle alone.

[6] = system: HT22 cells; assay: Mitochondrial reactive oxygen species measurement (MitoSOX Red); type: cell-based, mouse; settings: 5 μM compound + 50 nM RSL3
Experimental: The assay procedure described in Liang et al. was used. Briefly, HT22 cells were seeded onto 96-well black walled plates at a density of 3,000 cells/well in DMEM supplemented with 10% FBS and 1% antibiotics. After the desired treatments, the mitochondrial superoxide ROS were detected with MitoSOX Red reagent (Ex/Em=510/580 nm). Experiments were performed according to the manufacturer's instructions. Fluorescence was measured on a SpectraMax M5 microplate reader. Data were normalized for total protein/well. Each condition was analyzed in eight wells per independent experiment (n=8). Results are presented as the percentage of the controls with vehicle alone. Results were verified by live-cell imaging under a fluorescence microscope. FIG. 14 provides the results.

[7] = system: HT22 cells; assay: Ferroptosis assay, RSL3-induced cell death, MTT viability; type: cell-based; settings: Mus musculus, HT-22, 50 nM RSL3, 16 hours
Experimental: as §1, §2

[8] = system: Drosophila melanogaster; assay: Drosophila mild traumatic brain injury (mTBI) model; type: in vivo; settings: 3.0 μM in food, 3 weeks after mTBI (10×); vehicle 70.2%
[9] = system: HT22 cells; assay: Microscopic imaging of cell morphology after RSL3; type: cell-based, mouse; settings: 5 μM compound + 50 nM RSL3, 16 hours
Excerpt: Micrographs show the representative morphological characteristics of the cell cultures under a given condition of 8 experimental replicates. Scale bar=200 μm.
Microscopy. Brightfield, phase contrast, and fluorescence microscopic images were acquired on an IX51 inverted microscope (Olympus Corporation, Tokyo, Japan) with an INFINITY3 monochrome CCD camera (Teledyne Lumenera, Ontario, Canada). Super-resolution microscopic images were acquired on a Zeiss LSM 880 rear port laser scanning confocal and Airyscan FAST microscope (Carl-Zeiss, Oberkochen, Germany). Image processing and analysis were performed with microscope software packages ZEN Black and ImageJ/Fiji.

[10] = system: HT22 cells; assay: Seahorse XF mitochondrial stress test (OCR); type: cell-based, mouse; settings: 16 hours, compared with the control cells

CCCCCc1cc(O)c2c(c1)OC(C)(C)c1ccc(C)cc1-2 [CBN, Cannabinol]
RSL3-induced increase in intracellular LPO [1]: significantly suppressed | EC50 [2]: 2.33 µM | total ATP production rate ([3]; compared to the control): slightly but significantly decreased | increase in the OXPHOS contribution to ATP production ([3]; relative to the control): approximately 15% | EC50 [4]: 0.014 µM | EC50 [5]: 1.89 µM | RSL3-induced mtROS production [6]: significantly suppressed | EC50 [7]: 0.69 µM | 3-week mortality index (MI), percentage of dead flies [8]: 60.5% | prevention of RSL3-induced morphological deteriorations [9]: effectively prevented | maximal and spare mitochondrial respiration (OCR) [10]: partial but significant decrease
